Tests used:
[1] = system: B. subtilis 168; test: Bliss interaction score (quartile over a dose matrix) (fitness difference); higher = more antagonism (negative = synergy)
How it was run: (§1)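 Fitness here means normalised growth, inferred for single drugs from the combination data. Growth was OD595 at entry into stationary phase, divided by the plate's robust no-drug mean and capped at 1. The Bliss score is observed minus expected fitness, with the expectation being the product, and its quartiles span technical, biological and donor/recipient replicates.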

[2] = system: S. pneumoniae D39V; test: as above
How it was run: as §1

[3] = system: S. aureus DSM 20231; test: as above
How it was run: as §1

[4] = system: S. aureus Newman; test: as above
How it was run: as §1

[5] = system: S. pneumoniae D39V; test: fitness (endpoint OD595 vs no drug) (fraction); higher = more growth
How it was run: (§2)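 Background-subtracted growth curves were the basis for fitness, taken as the optical density at entry into stationary phase over the robust mean of no-drug control wells. A cap of 1 was applied. The curves came from OD595 readings every 30 min for 14 h at 37 °C, in 384-well plates seeded at OD595 0.01 with 30 µl, or 55 µl for S. pneumoniae.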

[6] = system: B. subtilis 168; test: as above
How it was run: as §2
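Wherever Bliss interaction score (quartile over a dose matrix) is given: first quartile when negative (synergy) and third quartile when positive (antagonism).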

CO/N=C(\C(=O)N[C@@H]1C(=O)N2C(C(=O)[O-])=C(C[N+]3(C)CCCC3)CS[C@H]12)c1csc(N)n1 [Cefepime] + Clc1ccc(COC(Cn2ccnc2)c2ccc(Cl)cc2Cl)c(Cl)c1 [Miconazole]
Conditions | Bliss interaction score
[1] | 0.0393
[2] | 0.0753
[3] | -0.109
[4] | -0.0643

[5]
Conditions | fitness
first compound 0.007 µg/mL, partner 1.25 µg/mL | 0.985
first compound 0.007 µg/mL, partner 2.5 µg/mL | 0.982
first compound 0.007 µg/mL, partner 5 µg/mL | 0.965
first compound 0.0078 µg/mL, partner 1.073 µg/mL | ≥ 1
first compound 0.0078 µg/mL, partner 2.145 µg/mL | ≥ 1
first compound 0.0078 µg/mL, partner 4.29 µg/mL | 0.948
first compound 0.014 µg/mL, partner 1.25 µg/mL | 0.934
first compound 0.014 µg/mL, partner 2.5 µg/mL | 0.969
first compound 0.014 µg/mL, partner 5 µg/mL | 0.943
first compound 0.0155 µg/mL, partner 1.073 µg/mL | 0.995
first compound 0.0155 µg/mL, partner 2.145 µg/mL | 0.851
first compound 0.0155 µg/mL, partner 4.29 µg/mL | 0.848
first compound 0.028 µg/mL, partner 1.25 µg/mL | 0.87
first compound 0.028 µg/mL, partner 2.5 µg/mL | 0.872
first compound 0.028 µg/mL, partner 5 µg/mL | 0.861
first compound 0.031 µg/mL, partner 4.29 µg/mL | 0.491

C[C@H]1COc2c(N3CCN(C)CC3)c(F)cc3c(=O)c(C(=O)O)cn1c23 [Levofloxacin] + CO[C@@H]1[C@@H](OC(N)=O)[C@@H](O)[C@H](Oc2ccc3c(O)c(NC(=O)c4ccc(O)c(CC=C(C)C)c4)c(=O)oc3c2C)OC1(C)C [Novobiocin]
Conditions | Bliss interaction score
[1] | -0.0305
[2] | -0.121
[3] | -0.0698
[4] | -0.091

fitness, [6], one replicate
Conditions | partner 0.05 µg/mL | partner 0.1 µg/mL | partner 0.125 µg/mL | partner 0.2 µg/mL | partner 0.25 µg/mL | partner 0.5 µg/mL
first compound 0.001 µg/mL | ≥ 1 | ≥ 1 | – | ≥ 1 | – | –
first compound 0.002 µg/mL | 0.929 | 0.952 | 0.908 | 0.933 | 0.874 | 0.493
first compound 0.0039 µg/mL | 0.965 | ≥ 1 | 0.839 | 0.928 | 0.808 | 0.505
first compound 0.0078 µg/mL | – | – | 0.864 | – | 0.808 | 0.457

fitness, [6]
Conditions | first compound 0.0312 µg/mL | first compound 0.0625 µg/mL | first compound 0.125 µg/mL
partner 0.0125 µg/mL | 0.0275 | 0.0273 | 0.0195
partner 0.025 µg/mL | 0.0255 | 0.0301 | 0.0265
partner 0.05 µg/mL | 0.028 | 0.0286 | 0.0286

CO/N=C(\C(=O)N[C@@H]1C(=O)N2C(C(=O)[O-])=C(C[N+]3(C)CCCC3)CS[C@H]12)c1csc(N)n1 [Cefepime] + C[C@H]1COc2c(N3CCN(C)CC3)c(F)cc3c(=O)c(C(=O)O)cn1c23 [Levofloxacin]
Conditions | Bliss interaction score
[1] | 0.0275
[2] | 0.157
[3] | 0.0646
[4] | 0.0639

fitness, [5]
Conditions | partner 0.1725 µg/mL | partner 0.2 µg/mL | partner 0.345 µg/mL | partner 0.4 µg/mL | partner 0.69 µg/mL | partner 0.8 µg/mL
first compound 0.007 µg/mL | – | 0.996 | – | 0.951 | – | 0.779
first compound 0.0078 µg/mL | 0.991 | – | 0.937 | – | 0.727 | –
first compound 0.014 µg/mL | – | 0.993 | – | 0.963 | – | 0.768
first compound 0.0155 µg/mL | 0.928 | – | 0.924 | – | 0.62 | –
first compound 0.028 µg/mL | – | 0.935 | – | 0.861 | – | 0.516

CN(C)C(=O)C(CCN1CCC(O)(c2ccc(Cl)cc2)CC1)(c1ccccc1)c1ccccc1 [Loperamide] + CN[C@H](CC(C)C)C(=O)N[C@H]1C(=O)N[C@@H](CC(N)=O)C(=O)N[C@H]2C(=O)N[C@H]3C(=O)N[C@H](C(=O)N[C@H](C(=O)O)c4cc(O)cc(O)c4-c4cc3ccc4O)[C@H](O)c3ccc(c(Cl)c3)Oc3cc2cc(c3O[C@@H]2O[C@H](CO)[C@@H](O)[C@H](O)[C@H]2O[C@H]2C[C@](C)(N)[C@H](O)[C@H](C)O2)Oc2ccc(cc2Cl)[C@H]1O [Vancomycin]
Conditions | Bliss interaction score
[1] | -0.0281
[2] | -0.184
[3] | -0.0861
[4] | 0.0922

[5]
Conditions | fitness
first compound 17.14 µg/mL, partner 0.5 µg/mL | 0.0584
first compound 20 µg/mL, partner 0.03125 µg/mL | ≥ 1
first compound 20 µg/mL, partner 0.0625 µg/mL | 0.937
first compound 34.28 µg/mL, partner 0.25 µg/mL | 0.77
first compound 34.28 µg/mL, partner 0.5 µg/mL | 0.0876
first compound 40 µg/mL, partner 0.03125 µg/mL | 0.959
first compound 40 µg/mL, partner 0.0625 µg/mL | 0.866
first compound 80 µg/mL, partner 0.125 µg/mL | 0.28

[5], first compound 68.57 µg/mL, one replicate
Conditions | fitness
partner 0.125 µg/mL | 0.942
partner 0.25 µg/mL | 0.853
partner 0.5 µg/mL | 0.0639

CCCCCCCCCC(=O)N[C@@H](Cc1c[nH]c2ccccc12)C(=O)N[C@H](CC(N)=O)C(=O)N[C@@H](CC(=O)O)C(=O)N[C@@H]1C(=O)NCC(=O)N[C@@H](CCCN)C(=O)N[C@@H](CC(=O)O)C(=O)N[C@H](C)C(=O)N[C@@H](CC(=O)O)C(=O)NCC(=O)N[C@H](CO)C(=O)N[C@@H]([C@H](C)CC(=O)O)C(=O)N[C@@H](CC(=O)c2ccccc2N)C(=O)O[C@@H]1C [Daptomycin] + CO[C@@H]1[C@@H](OC(N)=O)[C@@H](O)[C@H](Oc2ccc3c(O)c(NC(=O)c4ccc(O)c(CC=C(C)C)c4)c(=O)oc3c2C)OC1(C)C [Novobiocin]
Conditions | Bliss interaction score
[1] | 0.0788
[2] | 0.0661
[3] | 0.0439
[4] | 0.0984

fitness, [6]
Conditions | first compound 0.125 µg/mL | first compound 0.25 µg/mL | first compound 0.5 µg/mL
partner 0.0125 µg/mL | 0.94 | 0.981 | 0.899
partner 0.025 µg/mL | 0.916 | 0.94 | 0.867
partner 0.05 µg/mL | 0.968 | 0.984 | 0.902

fitness, [6], one replicate
Conditions | partner 0.05 µg/mL | partner 0.1 µg/mL | partner 0.125 µg/mL | partner 0.2 µg/mL | partner 0.25 µg/mL | partner 0.5 µg/mL
first compound 0.125 µg/mL | – | – | 0.958 | – | 0.954 | 0.649
first compound 0.25 µg/mL | – | 0.96 | ≥ 1 | 0.957 | ≥ 1 | 0.579
first compound 0.5 µg/mL | – | 0.94 | ≥ 1 | 0.936 | 0.965 | 0.288
first compound 1 µg/mL | 0.738 | 0.791 | – | 0.759 | – | –

— the supplement of paper PMC10627819
